Measured values: patent US20260000670A1 (priority 2022, published 2026)

How the values were obtained:
C57B1/6 mice [1] = assay: anti-AAV8 IgM and IgG titers (ELISA on empty AAV8 capsids) after rAAV8 administration in mice; assay type: in vivo
Description: (§1) FIG. 1. rAAV8 readministration in mice and Dasatinib treatment. C57B1/6 mice were intravenously dosed on study day 1 with a rAAV8 encoding the hSEAP (human secreted alkaline phosphatase) at the dose of 1E12 vg/kg. On study day 22, they received a second rAAV8 encoding hFIX (human Factor IX) at the dose of 5E13 vg/kg. […] Group 2 (immunized mice, n=10) received both rAAV8 injections. Group 3 mice (n=10) received the two rAAV8 injections and were treated by oral gavage with 50 mg/kg dasatinib twice per day for 7 days starting on the day of first rAAV8 dosing. Blood samples were collected one day before and every 7 days after the first rAAV8 treatment.
(§2) FIGS. 2A-2C. Effects of dasatinib treatment on anti-AAV8 IgM titers. Serum was isolated from blood collected on study days 0, 8, 15, 21, 29 and 36 (FIG. 1) and anti-AA V8 IgM measured by ELISA, performed on immobilized empty AAV8 capsids. IgM antibody titers were determined by ELISA OD values of serial dilutions (1:10 and 7-step serial dilution 1:3). For the determination of mean background level, readouts were pooled from all mouse groups at day 0. The positivity threshold is represented by the dotted line. The kinetics of anti-AAV8 IgM antibody titers is shown for each mouse group (FIGS. 2A-2C). The empty circles represent titers under the threshold, and crossed circles represent titers above the threshold.
as §2, with “FIGS. 3A-3C.” for “FIGS. 2A-2C.”, “anti-AAV8 IgG” for “anti-AAV8 IgM”, “and anti-AAV8 IgG” for “and anti-AA V8 IgM”, “capsids. IgG” for “capsids. IgM”, “of anti-AA V8 IgG” for “of anti-AAV8 IgM”, “(FIGS. 3A-3C).” for “(FIGS. 2A-2C).”
To assess whether dasatinib could efficiently prevent anti-AAV antibody formation after rAAV administration and allow efficient re-administration of rAAV, a study was conducted in mice (FIG. 1). Groups of C57B1/6 mice were intravenously dosed with a first rAAV8 encoding hSEAP (human secreted alkaline phosphatase, under control of a CMV promoter) at the dose of 1E12vg/kg on study day 1. On study day 22, they were dosed with a second rAAV8 encoding hFIX (human Factor IX, under control of a CMV promoter) at the dose of 5E13 vg/kg. […] Group 3 mice were treated with Dasatinib at the dose of 50 mg/kg by oral gavage twice per day for 7 days, starting on the day of first rAAV8 dosing. […]

C57B1/6 mice [2] = assay: transgene expression (hSEAP, hFIX) in serum following rAAV8 re-administration; assay type: in vivo
Description: as §1
FIGS. 4A-4B. Dasatinib treatment allows transgene expression following rAAV re-administration. Serum was isolated from blood collected on study days 0, 8, 15, 21, 29 and 36 (FIG. 1). (FIG. 4A) Expression of the first transgene hSEAP was measured by chemiluminescence. (FIG. 4B) After AAV8 re-administration, expression of the second transgene hFactorIX was measured by ELISA. Mean concentrations are shown +/−SD.
To assess whether dasatinib could efficiently prevent anti-AAV antibody formation after rAAV administration and allow efficient re-administration of rAAV, a study was conducted in mice (FIG. 1). Groups of C57B1/6 mice were intravenously dosed with a first rAAV8 encoding hSEAP (human secreted alkaline phosphatase, under control of a CMV promoter) at the dose of 1E12vg/kg on study day 1. On study day 22, they were dosed with a second rAAV8 encoding hFIX (human Factor IX, under control of a CMV promoter) at the dose of 5E13 vg/kg. […]
Expression of the first transgene hSEAP and second transgene hFIX were measured in the serum samples from the experiment presented above (FIG. 1, Example 1). As expected, human SEAP was detected in the serum of mice from Groups 2 and 3, already 7 days after injection of AAV8-hSEAP on study day 1 (FIG. 4A). […] In contrast, hFIX expression was detected in the serum of all mice from the non-immunized Group 1 (mean: 2107 ng/ml) as well as in most mice from the dasatinib-treated Group 3 (average: 1398 ng/ml).

[3] = Lindauer M et al, 2010; cited from earlier work
[4] = system: PBMCs from human heathy donors; assay: FluoroSpot T cell responses of PBMCs to AAV2 and AAV9 capsid peptide pools; assay type: cell-based; details: 100 nM dasatinib, 48 hrs, two donors
Description: FIGS. 12A-12B: Dasatinib treatment reduces T cell responses to AAV2 and AAV9 in vitro. PBMCs from human heathy donors were stimulated with peptide pools covering the AAV2 and AAV9 capsid sequences in the absence (black bars) or presence of 100 nM dasatinib (grey bars). After 48 hrs, IFN-γ- and TNF-α secreting cells were measured by Fluorospot. Mean Spot-Forming Cellsmedian+/−SD are shown for 1E6 PBMCs. Dotted line: Positivity threshold.
An important question was its potential effect on the cellular adaptive immune response. T cell responses to rAAV have been reported to induce the clearance of AAV-transduced cells and thereby decrease the duration of transgene expression. It is also known that T cell responses to AAV can mediate liver toxicities in the clinic. T cell responses to AAV can be measured in healthy human blood donors who have previously been infected with wild-type AAV. FluoroSpot assays reveal the proportions of IFN-y-and TNF-a-producing PBMCs induced upon incubation with pools of AAV capsid peptides. We used this assay to assess the response of PBMCs from two healthy blood donors to three different peptide pools covering the capsid sequences of AAV2 and AAV9 (FIGS. 12A-12B). […] Donor 2 had positive IFN-γ and/or TNF-α responses to AAV9 pools 2 and 3. All these responses were inhibited in the presence of 100 nM dasatinib.

Q: What does the source list for `Cc1nc(Nc2ncc(C(=O)Nc3c(C)cccc3Cl)s2)cc(N2CCN(CCO)CC2)n1` [dasatinib, N-(2-chloro-6-methylphenyl)-2-[[6-[4-(2-hydroxyethyl)-1-piperazinyl]-2-methyl-4-pyrimidinyl]amino]-5-thiazole carboxamide monohydrate]?
A: anti-AAV8 IgG titers compared with immunized control Group 2 (C57B1/6 mice [1]; Group 3, 50 mg/kg oral gavage twice per day for 7 days): drastically reduced; anti-AAV8 IgM in serum versus positivity threshold (C57B1/6 mice [1]; Group 3, 50 mg/kg oral gavage twice per day for 7 days from first rAAV8 dosing, until administration of second rAAV8 (day 22)): remained underthe IgM positivity threshold; mice above the anti-AAV8 IgG positivity threshold (C57B1/6 mice [1]; Group 3, study day 21, 50 mg/kg oral twice per day for 7 days): 4/10; anti-AAV8 IgG titers after rAAV8 re-administration (C57B1/6 mice [1]; day 36, two weeks after rAAV8 re-administration): comparable in all mouse groups; human SEAP in serum (C57B1/6 mice [2]; Group 3, 7 days after AAV8-hSEAP on study day 1): detected; hFIX expression in serum (average) (C57B1/6 mice [2]; Group 3, after AAV8-hFIX 5E13 vg/kg on day 22, dasatinib 50 mg/kg twice per day for 7 days at first rAAV8 dosing): 1398 ng/mL; hFIX expression detected in serum (C57B1/6 mice [2]; Group 3, after second rAAV8 on day 22): in most mice; half-life [3]: very short; IFN-γ responses (secreting cells) to AAV9 peptide pools [4]: inhibited; TNF-α responses (secreting cells) to AAV2 and AAV9 peptide pools [4]: inhibited
